Measured values taken from patent publication EP2487185A1, “Hexapeptide with improved activity in the repair of cellular DNA of dermal cells” (Clinuvel Pharmaceuticals Limited, priority 2011, dated 2012).
Non-standard residues stand in square brackets, D forms with d. Nle = CCCC[C@H](N)C(=O)O

Columns and labels:
Assay type in all cases: cell-based, human
melanocytic strain 10.3c = experiment: UV-induced generation of hydrogen peroxide (luminol luminescence); details: 1 nM, 105 mJ/cm^2 UV, 0, 30 and 45 minutes after UV
Description: With reference to Figs. 10 and 11, melanocytes were irradiated with a bank of FS 20 lamps, with 75% emission in the UVB, and 25% emission in the UVA spectra, with peak emission at 313 nm wavelength. Any emission of UVC rays from the UV source (FS 20 lamps) was blocked by Kodacel filter. Prior to irradiation, the culture medium was replaced by PBS, which was removed after UV exposure, and fresh medium added.
Melanocytes were irradiated with 105 mJ/cm^2 UV, and treated immediately while in PBS with 0, 1 nM α-MSH or 1 nM CUV9900. Generation of hydrogen peroxide, representative of reactive oxygen species (ROS), was determined by measuring the luminescence of luminol at 0, 30, and 45 min after UV exposure. Triplicate dishes were included in each group, and duplicate samples from each dish were used for measurement of hydrogen peroxide at each time point. Each data point represents the mean of 6 determinations/group ±S.E.

strains 1505b and 1513c [1] = experiment: Cell proliferation as a measure of stability, overall; details: all experiments on both strains 1505b and 1513c
Protocol: (§1) With continued reference to Figs. 7, 8 and 9, to determine the stability of CUV9900 versus that of NDP-MSH and α-MSH, melanocytes were treated with 1 nM of each peptide, namely with CUV9900, NDP-MSH and α-MSH, for a total of 6 days, or with 1 nM peptides that were incubated for 5 hours at 37 °C prior to addition to the cultures, every other day, for a total of 6 days. Tyrosinase activity was measured at the end of treatment. In the experiments, cell number represents the mean percent of control of 3 determinations/ group ±SE, and tyrosinase activity data represent the mean percent of control of 6 determinations ±S.E. It should be noted that for the sake of reproducibility the experiment of strain 1513c of Fig. 9 was performed once more 6 months later than the experiment of Fig. 7.
Peptides were incubated at 37 degrees Celsius for 5 hours and then split into groups. Cell proliferation was a measure of stability, whereby the experiments on strain 1513c were divided in period 1 and 2 under standard conditions.

strains 1505b and 1513c [2] = experiment: Tyrosinase activity as a measure of stability, overall
Protocol: as §1
Melanocytes were treated for 3 days with the designated concentrations of CUV9900, NDP-MSH, or MSH, then maintained in absence of peptides for 4 days. Tyrosinase activity was determined 3 days after treatment.

melanocyte strain 103c = experiment: UV-induced apoptosis by Annexin Va staining, flow cytometry; details: 1 nM, 4 days prior and 1 day following 105 mJ/cm^2 UV
Protocol: With reference to Fig. 12 and 13, melanocytes were maintained for the duration of the experiment in medium lacking bovine pituitary extract (BPE) to determine the survival effect of α-MSH or its analogs in the absence of the anti-apoptotic effect of TPA. Melanocytes were treated with 0, 1 nM α-MSH, 1 µM Forskolin, or 1 nM NDP-MSH or CUV9900 for 4 days prior to, and 24 h after exposure to a dose of 105 mJ/cm^2 UV, then stained for Annexin Va staining. The data are represented as percent increase above control, with triplicate dishes included in each group.
Comparison of the effect of CUV9900, NDP-MSH and MSH on the UV-induced apoptosis were made in the melanocyte strains 103c and melanocyte strain 1513c of Figs. 12 and 13, respectively. Both strains were treated with 1 nM CUV9900, NDP and MSH, respectively for 4 days prior and 1 day following irradiation. Floating as well as attached cells were harvested and stained for Annexin V, and analyzed by flow cytometry.

- superior tyrosinase activity in comparison to MSH (strains 1505b and 1513c [2]): 42.5%
- superior tyrosinase activity in comparison to NDP-MSH (strains 1505b and 1513c [2]): 19.8%
Substance: Ac-Nle-Glu His-D-Phe-Arg-Trp-NH2 (Ac-[Nle]EH[dF]RW-NH2; SMILES CCCC[C@H](NC(C)=O)C(=O)N[C@@H](CCC(=O)O)C(=O)N[C@@H](Cc1c[nH]cn1)C(=O)N[C@H](Cc1ccccc1)C(=O)N[C@@H](CCCNC(=N)N)C(=O)N[C@@H](Cc1c[nH]c2ccccc12)C(N)=O) [CUV9900, hexapeptide, alpha-MSH analogue]
- UV-induced hydrogen peroxide generation (melanocytic strain 10.3c): significant reduction of UV-induced hydrogen peroxide generation
- more cell proliferation and stability than MSH (strains 1505b and 1513c [1]): 2.9%
- more cell proliferation and stability than NDP-MSH (strains 1505b and 1513c [1]): 4.0%
- anti-apoptotic effect (UV-induced apoptosis, Annexin V) (melanocyte strain 103c): equal anti-apoptotic effect than NDP-MSH
